Measured values reported in patent publication US9079821B2, “Quinone based nitric oxide donating compounds” (NICOX S.A., priority 2011, dated 2015).

Experiment: Pharmacokinetic profile in rats (blood 15N-nitrite levels)
Format: in vivo, rat
Conditions: cannulated SD rats, blood, oral 30 mg/kg
Protocol: The absorption and in vivo NO-donating property of the compounds of the invention were assessed by the evaluation of blood ^15N-nitrite levels following oral administration.
Tested Compounds: • 5-(2,4,5-trimethyl-3,6-dioxocyclohexa-1,4-dienylpentyl nitrate-nitrogen-15 which corresponds to compound (1) containing nitrogen-15 (^15N-Compound (1)); • 5-(4,5-dimethoxy-2-methyl-3,6-dioxocyclohexa-1,4-dienyl)pentyl nitrate-nitrogen-15 which corresponds to compound (2) containing nitrogen-15 (^15N-Compound (2)); • 4-(2,4,5-trimethyl-3,6-dioxocyclohexa-1,4-dienyl)butyl nitrate-nitrogen-15 which corresponds to compound (3) containing nitrogen-15 (^15N-Compound (3)); • 4-(4,5-dimethoxy-2-methyl-3,6-dioxocyclohexa-1,4-dienyl)butyl nitrate-nitrogen-15 which corresponds to compound (4) containing nitrogen-15 (^15N-Compound (4)); • 10-(2,4,5-trimethyl-3,6-dioxocyclohexa-1,4-dienyl)decyl nitrate-nitrogen-15 which corresponds to compound (5) containing nitrogen-15 (^15N-Compound (5)); • 10-(4,5-dimethoxy-2-methyl-3,6-dioxocyclohexa-1,4-dienyl)decyl nitrate-nitrogen-15 which corresponds to compound (6) containing nitrogen-15 (^15N-Compound (6)); • 3-(3-(4,5-dimethoxy-2-methyl-3,6-dioxocyclohexa-1,4-dienyl)propoxy)propyl nitrate-nitrogen-15 which corresponds to compound (14) containing nitrogen-15 (^15N-Compound (14)); • 6-(2,4,5-trimethyl-3,6-dioxocyclohexa-1,4-dienyl)hexyl nitrate-nitrogen-15 which corresponds to compound (15) containing nitrogen-15 (^15N-Compound (15)); • 6-(4,5-dimethoxy-2-methyl-3,6-dioxocyclohexa-1,4-dienyl)hexyl nitrate-nitrogen-15 which corresponds to compound (16) containing nitrogen-15 (^15N-Compound (16)); • 11-(4,5-dimethoxy-2-methyl-3,6-dioxocyclohexa-1,4-dienyl)-undecane-1,2-diyl dinitrate-nitrogen-15 which corresponds to compound (17) containing nitrogen-15 (^15N-Compound (17)); • 8-(5-methoxy-2,4-dimethyl-3,6-dioxocyclohexa-1,4-dienyl)octyl nitrate-nitrogen—which corresponds to compound (19) containing nitrogen-15 (^15N-Compound (19)); • 2-(3-(4,5-dimethoxy-2-methyl-3,6-dioxocyclohexa-1,4-dienyl)propoxy)ethyl nitrate-nitrogen-15 which corresponds to compound (20) containing nitrogen-15 (^15N-Compound (20)); • 6-(3-methyl-1,4-dioxo-1,4-dihydronaphthalen-2-yl)hexyl nitrate-nitrogen-15 which corresponds to compound (23) containing nitrogen-15 (^15N-Compound (23)); • 3-(3-(3-methyl-1,4-dioxo-1,4-dihydronaphthalen-2-yl)propoxy)propyl nitrate-nitrogen-15 which corresponds to compound (25) containing nitrogen-15 (^15N-Compound (25)); • 6-(5-methoxy-2,4-dimethyl-3,6-dioxocyclohexa-1,4-dienyl)hexyl nitrate-nitrogen-15 which corresponds to compound (28) containing nitrogen-15 (^15N-Compound (28)); • 6-(4-methoxy-2,5-dimethyl-3,6-dioxocyclohexa-1,4-dienyl)hexyl nitrate-nitrogen-15 which corresponds to compound (29) containing nitrogen-15 (^15N-Compound (29)); • 8-(4-methoxy-2,5-dimethyl-3,6-dioxocyclohexa-1,4-dienyl)octyl nitrate-nitrogen-15 which corresponds to compound (32) containing nitrogen-15 (^15N-Compound (32)); • 8-(2,4,5-trimethyl-3,6-dioxocyclohexa-1,4-dienyl)octyl nitrate-nitrogen-15 which corresponds to compound (34) containing nitrogen-15 (^15N-Compound (34)); • 5-isorbide mononitrate containing nitrogen-15 (5-ISM^15N).
Cannulated SD rats were orally treated with ^15N-Compounds (6) at 30 mg/kg, 5-ISM^15N (30 mg/kg), or ^15N-Compounds (1)-(5), 14)-(17), (19), (20), (23), (25), (28), (29), (32), (34) at 30 mg/kg. At each time point (5, 10, 15, 30, 60, 180, 360 and 1440 min) blood was taken using heparin to avoid blood clotting. Blood samples were immediately protein crushed. Samples were analyzed by LC-MS/MS.
In Table 7 are reported ^15N-nitrite blood levels following oral administration of SD rats with 5-ISM^15N (30 mg/kg) or with ^15N-labeled corresponding compounds of the invention (30 mg/kg).

SMILES | 15N-nitrite AUC0-24 | 15N-nitrite Tmax
COC1=C(OC)C(=O)C(CCCOCCO[15N+](=O)[O-])=C(C)C1=O [^15N-Compound (20), 2-(3-(4,5-dimethoxy-2-methyl-3,6-dioxocyclohexa-1,4-dienyl)propoxy)ethyl nitrate-nitrogen-15] | 1154 µM·min | 1 h

Same assay, conditions: cannulated SD rats, blood, oral 30 mg/kg; read-out: 15N-nitrite Cmax

SMILES | Cmax
COC1=C(OC)C(=O)C(CCCOCCO[N+](=O)[O-])=C(C)C1=O [^15N-Compound (20), 2-(3-(4,5-dimethoxy-2-methyl-3,6-dioxocyclohexa-1,4-dienyl)propoxy)ethyl nitrate-nitrogen-15] | 3580 ± 720 nM

Same assay, conditions: rat, in vivo, po, 30 mg/kg

SMILES | 15N-nitrite AUC0-24 | 15N-nitrite Tmax | Cmax
COC1=C(OC)C(=O)C(CCCCO[N+](=O)[O-])=C(C)C1=O [^15N-Compound (4), 4-(4,5-dimethoxy-2-methyl-3,6-dioxocyclohexa-1,4-dienyl)butyl nitrate-nitrogen-15] | 832 µM·min | 0.25 h | 3330 ± 100 nM
CC1=C(CCCCCCO[N+](=O)[O-])C(=O)c2ccccc2C1=O [^15N-Compound (23), 6-(3-methyl-1,4-dioxo-1,4-dihydronaphthalen-2-yl)hexyl nitrate-nitrogen-15] | – | – | 4050 ± 530 nM
COC1=C(OC)C(=O)C(CCCCCCO[N+](=O)[O-])=C(C)C1=O [^15N-Compound (16), 6-(4,5-dimethoxy-2-methyl-3,6-dioxocyclohexa-1,4-dienyl)hexyl nitrate-nitrogen-15] | 1559 µM·min | 3 h | 2930 ± 490 nM
COC1=C(OC)C(=O)C(CCCCCCCCCC(CO[N+](=O)[O-])O[N+](=O)[O-])=C(C)C1=O (stereo not drawn) [^15N-Compound (17), 11-(4,5-dimethoxy-2-methyl-3,6-dioxocyclohexa-1,4-dienyl)-undecane-1,2-diyl dinitrate-nitrogen-15] | 1666 µM·min | 3 h | 2060 ± 120 nM
COC1=C(OC)C(=O)C(CCCCCO[15N+](=O)[O-])=C(C)C1=O [^15N-Compound (2), 5-(4,5-dimethoxy-2-methyl-3,6-dioxocyclohexa-1,4-dienyl)pentyl nitrate-nitrogen-15] | 1139 µM·min | 1 h | –
CC1=C(CCCOCCCO[N+](=O)[O-])C(=O)c2ccccc2C1=O [^15N-Compound (25), 3-(3-(3-methyl-1,4-dioxo-1,4-dihydronaphthalen-2-yl)propoxy)propyl nitrate-nitrogen-15] | 2010 µM·min | 3 h | 2890 ± 690 nM
CC1=C(CCCCCCO[15N+](=O)[O-])C(=O)c2ccccc2C1=O [^15N-Compound (23), 6-(3-methyl-1,4-dioxo-1,4-dihydronaphthalen-2-yl)hexyl nitrate-nitrogen-15] | 2586 µM·min | 3 h | –
COC1=C(OC)C(=O)C(CCCOCCCO[N+](=O)[O-])=C(C)C1=O [^15N-Compound (14), 3-(3-(4,5-dimethoxy-2-methyl-3,6-dioxocyclohexa-1,4-dienyl)propoxy)propyl nitrate-nitrogen-15] | – | – | 1520 ± 110 nM
COC1=C(OC)C(=O)C(CCCCCO[N+](=O)[O-])=C(C)C1=O [^15N-Compound (2), 5-(4,5-dimethoxy-2-methyl-3,6-dioxocyclohexa-1,4-dienyl)pentyl nitrate-nitrogen-15] | – | – | 1920 ± 250 nM
COC1=C(OC)C(=O)C(CCCOCCCO[15N+](=O)[O-])=C(C)C1=O [^15N-Compound (14), 3-(3-(4,5-dimethoxy-2-methyl-3,6-dioxocyclohexa-1,4-dienyl)propoxy)propyl nitrate-nitrogen-15] | 694 µM·min | 1 h | –

Second part, the compound after the results:

15N-nitrite AUC0-24 | 15N-nitrite Tmax | Cmax | SMILES
1477 µM·min | 3 h | – | CC1=C(C)C(=O)C(CCCCCCCCO[15N+](=O)[O-])=C(C)C1=O [^15N-Compound (34), 8-(2,4,5-trimethyl-3,6-dioxocyclohexa-1,4-dienyl)octyl nitrate-nitrogen-15]
– | – | 4820 ± 1100 nM | CC1=C(C)C(=O)C(CCCCO[N+](=O)[O-])=C(C)C1=O [^15N-Compound (3), 4-(2,4,5-trimethyl-3,6-dioxocyclohexa-1,4-dienyl)butyl nitrate-nitrogen-15]
– | – | 2800 ± 250 nM | CC1=C(C)C(=O)C(CCCCCCCCO[N+](=O)[O-])=C(C)C1=O [^15N-Compound (34), 8-(2,4,5-trimethyl-3,6-dioxocyclohexa-1,4-dienyl)octyl nitrate-nitrogen-15]
1248 µM·min | 1 h | 3350 ± 420 nM | CC1=C(C)C(=O)C(CCCCCO[N+](=O)[O-])=C(C)C1=O [^15N-Compound (1)]
1309 µM·min | 1 h | 2550 ± 220 nM | COC1=C(C)C(=O)C(CCCCCCO[N+](=O)[O-])=C(C)C1=O [^15N-Compound (29), 6-(4-methoxy-2,5-dimethyl-3,6-dioxocyclohexa-1,4-dienyl)hexyl nitrate-nitrogen-15]
– | – | 1890 ± 420 nM | CC1=C(C)C(=O)C(CCCCCCCCCCO[N+](=O)[O-])=C(C)C1=O [^15N-Compound (5), 10-(2,4,5-trimethyl-3,6-dioxocyclohexa-1,4-dienyl)decyl nitrate-nitrogen-15]
1496 µM·min | 3 h | – | CC1=C(C)C(=O)C(CCCCCCCCCCO[15N+](=O)[O-])=C(C)C1=O [^15N-Compound (5), 10-(2,4,5-trimethyl-3,6-dioxocyclohexa-1,4-dienyl)decyl nitrate-nitrogen-15]
1892 µM·min | 3 h | 1980 ± 570 nM | COC1=C(C)C(=O)C(CCCCCCCCO[N+](=O)[O-])=C(C)C1=O [^15N-Compound (32), 8-(4-methoxy-2,5-dimethyl-3,6-dioxocyclohexa-1,4-dienyl)octyl nitrate-nitrogen-15]
1404 µM·min | 1 h | – | CC1=C(C)C(=O)C(CCCCO[15N+](=O)[O-])=C(C)C1=O [^15N-Compound (3), 4-(2,4,5-trimethyl-3,6-dioxocyclohexa-1,4-dienyl)butyl nitrate-nitrogen-15]
– | – | 3650 ± 580 nM | CC1=C(C)C(=O)C(CCCCCCO[N+](=O)[O-])=C(C)C1=O [^15N-Compound (15), 6-(2,4,5-trimethyl-3,6-dioxocyclohexa-1,4-dienyl)hexyl nitrate-nitrogen-15]
1199 µM·min | 1 h | 3740 ± 420 nM | COC1=C(C)C(=O)C(C)=C(CCCCCCO[N+](=O)[O-])C1=O [^15N-Compound (28), 6-(5-methoxy-2,4-dimethyl-3,6-dioxocyclohexa-1,4-dienyl)hexyl nitrate-nitrogen-15]
2135 µM·min | 3 h | – | CC1=C(C)C(=O)C(CCCCCCO[15N+](=O)[O-])=C(C)C1=O [^15N-Compound (15), 6-(2,4,5-trimethyl-3,6-dioxocyclohexa-1,4-dienyl)hexyl nitrate-nitrogen-15]
